This is an account of results in ChEMBL document CHEMBL4177722, “Small molecule inhibitors of anthrax edema factor” (Bioorg Med Chem Lett, 2018).

Where only a bound is given, the exact number is not on record here.

The target in one data set is T1, Calmodulin-sensitive adenylate cyclase (Bacillus anthracis) (UniProt P40136).
T1 sequence (whole entry): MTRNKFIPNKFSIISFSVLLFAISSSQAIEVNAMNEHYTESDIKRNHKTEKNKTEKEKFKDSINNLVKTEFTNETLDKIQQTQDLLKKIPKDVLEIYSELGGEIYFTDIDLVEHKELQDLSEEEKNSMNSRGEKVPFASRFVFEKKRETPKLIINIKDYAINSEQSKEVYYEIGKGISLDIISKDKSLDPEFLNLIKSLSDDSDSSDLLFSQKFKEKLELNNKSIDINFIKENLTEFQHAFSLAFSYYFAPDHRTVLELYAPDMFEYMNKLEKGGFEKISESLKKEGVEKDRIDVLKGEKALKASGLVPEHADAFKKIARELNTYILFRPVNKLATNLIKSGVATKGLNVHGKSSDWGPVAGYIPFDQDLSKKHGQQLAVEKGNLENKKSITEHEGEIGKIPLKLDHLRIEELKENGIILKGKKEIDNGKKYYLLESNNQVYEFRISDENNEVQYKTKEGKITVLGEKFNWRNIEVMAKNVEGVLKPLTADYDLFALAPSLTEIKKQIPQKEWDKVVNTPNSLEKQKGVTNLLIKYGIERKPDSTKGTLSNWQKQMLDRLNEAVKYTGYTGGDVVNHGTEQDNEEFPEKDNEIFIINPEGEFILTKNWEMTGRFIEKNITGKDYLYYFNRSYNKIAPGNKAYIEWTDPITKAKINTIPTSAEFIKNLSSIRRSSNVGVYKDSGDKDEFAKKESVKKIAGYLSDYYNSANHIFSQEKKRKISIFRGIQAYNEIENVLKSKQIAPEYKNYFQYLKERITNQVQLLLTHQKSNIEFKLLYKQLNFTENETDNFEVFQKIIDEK
Briefly: Inactivation of Bacillus anthracis edema factor assessed as inactivation rate constant in presence of CaM incubated for 10 to 240 mins by EnzChek pyrophosphate assay.
Conditions: not given
As to `Cc1nc(N)cc(OC2CCN(C(=O)c3ccc(S(=O)(=O)F)cc3)CC2)n1`, the Kinact was 0.112 min⁻¹.
Take `Nc1ncnc2c1ncn2CCCNC(=O)c1ccc(S(=O)(=O)F)cc1`: the Kinact came to 0.012 min⁻¹.
Consider `Cc1nc(N)c2cnn(CCCNC(=O)c3ccc(S(=O)(=O)F)cc3)c2n1`, for which the Kinact was 0.121 min⁻¹.
With `Nc1cc(OC2CN(C(=O)c3ccc(S(=O)(=O)F)cc3)C2)ccn1`, the Kinact came to 0.003 min⁻¹.
Same read-out and setting: next, `Cc1nc(N)c2cnn(C3CCN(C(=O)c4ccc(S(=O)(=O)F)cc4)CC3)c2n1`: 0.072 min⁻¹.
On the same count and under the same terms, next, `Cc1nc(N)c2ncn(C3CCN(C(=O)c4ccc(S(=O)(=O)F)cc4)CC3)c2n1`: 0.062 min⁻¹; `Nc1ncnc2c1ncn2C1CCN(C(=O)c2ccc(S(=O)(=O)F)cc2)CC1`: 0.01 min⁻¹.
Consider `Nc1cc(OCCCNC(=O)c2ccc(S(=O)(=O)F)cc2)ccn1`, for which the Kinact worked out at 0.043 min⁻¹.
The same measure, in the same setting: next, `Nc1cc(OCCNC(=O)c2ccc(S(=O)(=O)F)cc2)ccn1`: 0.028 min⁻¹; `Nc1cc(OCCNCc2ccc(S(=O)(=O)F)cc2)ccn1`: 0.029 min⁻¹.

The next data set has as its target T2, Calmodulin-sensitive adenylate cyclase (Bacillus anthracis, UniProt P40136).
T2 sequence (P40136 whole entry): T1 sequence (whole entry)
As to the kind of experiment: Inactivation of Bacillus anthracis edema factor in presence of CaM incubated for 10 to 240 mins by EnzChek pyrophosphate assay.
Conditions: not given
For `Cc1nc(N)cc(OC2CCN(C(=O)c3ccc(S(=O)(=O)F)cc3)CC2)n1`, the Ki worked out at 27.6 µM.
On the same count and under the same terms, next, `Nc1ncnc2c1ncn2CCCNC(=O)c1ccc(S(=O)(=O)F)cc1`: 37.7 µM; `Cc1nc(N)c2cnn(CCCNC(=O)c3ccc(S(=O)(=O)F)cc3)c2n1`: 34.8 µM; `Nc1cc(OC2CN(C(=O)c3ccc(S(=O)(=O)F)cc3)C2)ccn1`: 10.9 µM.
As for `Cc1nc(N)c2cnn(C3CCN(C(=O)c4ccc(S(=O)(=O)F)cc4)CC3)c2n1`, the Ki was 2.1 µM.
`Cc1nc(N)c2ncn(C3CCN(C(=O)c4ccc(S(=O)(=O)F)cc4)CC3)c2n1`: the Ki is 16.5 µM.
Turning to `Nc1ncnc2c1ncn2C1CCN(C(=O)c2ccc(S(=O)(=O)F)cc2)CC1`, the Ki is 9.4 µM.
For the compound `Nc1cc(OCCCNC(=O)c2ccc(S(=O)(=O)F)cc2)ccn1`, the Ki is 88.1 µM.
Still for that read-out and setting: with `Nc1cc(OCCNC(=O)c2ccc(S(=O)(=O)F)cc2)ccn1` the figure was 127 µM; with `Nc1cc(OCCNCc2ccc(S(=O)(=O)F)cc2)ccn1`, 49.6 µM.

Another data set concerns the target T1, Calmodulin-sensitive adenylate cyclase (Bacillus anthracis). Briefly: Inactivation of Bacillus anthracis edema factor assessed as Kinact/Ki ratio in presence of CaM incubated for 10 to 240 mins by EnzChek pyrophosphate assay.
Conditions: not given
For the compound `Cc1nc(N)cc(OC2CCN(C(=O)c3ccc(S(=O)(=O)F)cc3)CC2)n1`, the Ratio stood at 67.8.
As to `Nc1ncnc2c1ncn2CCCNC(=O)c1ccc(S(=O)(=O)F)cc1`, the Ratio was determined as 5.3.
With `Cc1nc(N)c2cnn(CCCNC(=O)c3ccc(S(=O)(=O)F)cc3)c2n1`, the Ratio worked out at 58.
Still for that read-out and setting: next, `Nc1cc(OC2CN(C(=O)c3ccc(S(=O)(=O)F)cc3)C2)ccn1`: 4.9.
Turning to `Cc1nc(N)c2cnn(C3CCN(C(=O)c4ccc(S(=O)(=O)F)cc4)CC3)c2n1`, the Ratio was 581.
Same read-out and setting: with `Cc1nc(N)c2ncn(C3CCN(C(=O)c4ccc(S(=O)(=O)F)cc4)CC3)c2n1` the figure was 62.8.
For `Nc1ncnc2c1ncn2C1CCN(C(=O)c2ccc(S(=O)(=O)F)cc2)CC1`, the Ratio stood at 18.
On the same count and under the same terms, with `Nc1cc(OCCCNC(=O)c2ccc(S(=O)(=O)F)cc2)ccn1` the figure was 8.1; with `Nc1cc(OCCNC(=O)c2ccc(S(=O)(=O)F)cc2)ccn1`, 3.6; with `Nc1cc(OCCNCc2ccc(S(=O)(=O)F)cc2)ccn1`, 9.6.

Another data set has the same target. As to the kind of experiment: Inactivation of Bacillus anthracis edema factor assessed as Kinact/Ki ratio in presence of CaM incubated for 10 to 240 mins by EnzChek pyrophosphate assay relative to FSBA.
Conditions: not given
In the case of `Cc1nc(N)cc(OC2CCN(C(=O)c3ccc(S(=O)(=O)F)cc3)CC2)n1`, the Ratio was determined as 5.1.
Still for that read-out and setting: with `Nc1ncnc2c1ncn2CCCNC(=O)c1ccc(S(=O)(=O)F)cc1` the figure was 0.4; with `Cc1nc(N)c2cnn(CCCNC(=O)c3ccc(S(=O)(=O)F)cc3)c2n1`, 4.3.
With `Nc1cc(OC2CN(C(=O)c3ccc(S(=O)(=O)F)cc3)C2)ccn1`, the Ratio came out at 0.4.
The same measure, in the same setting: next, `Cc1nc(N)c2cnn(C3CCN(C(=O)c4ccc(S(=O)(=O)F)cc4)CC3)c2n1`: 43.3; `Cc1nc(N)c2ncn(C3CCN(C(=O)c4ccc(S(=O)(=O)F)cc4)CC3)c2n1`: 4.7; `Nc1ncnc2c1ncn2C1CCN(C(=O)c2ccc(S(=O)(=O)F)cc2)CC1`: 1.3.
On the same count and under the same terms, next, `Nc1cc(OCCCNC(=O)c2ccc(S(=O)(=O)F)cc2)ccn1`: 0.6; `Nc1cc(OCCNC(=O)c2ccc(S(=O)(=O)F)cc2)ccn1`: 0.3.
With `Nc1cc(OCCNCc2ccc(S(=O)(=O)F)cc2)ccn1`, the Ratio turned out to be 0.7.

Tested on in another data set: not listed separately
As to the kind of experiment: Cytotoxicity against mouse RAW264.7 cells assessed a reduction in cell viability incubated for 24 hrs in presence of 10% FBS by MTT assay. The data set is classed as cell-based. The following applies: RAW264.7 cells. In general terms: Tetrazolium assays rely on reduction of a dye to a coloured formazan, in cell work by metabolically active cells.
The term CC50 denotes the concentration that lowers cell viability or growth by half. Consider `Cc1nc(N)cc(OC2CCN(C(=O)c3ccc(S(=O)(=O)F)cc3)CC2)n1`, for which the CC50 at 24 h was > 100 µM.
As to `Nc1ncnc2c1ncn2CCCNC(=O)c1ccc(S(=O)(=O)F)cc1`, the CC50 at 24 h is > 100 µM.
The same measure, in the same setting: next, `Cc1nc(N)c2cnn(CCCNC(=O)c3ccc(S(=O)(=O)F)cc3)c2n1`: > 100 µM; `Cc1nc(N)c2cnn(C3CCN(C(=O)c4ccc(S(=O)(=O)F)cc4)CC3)c2n1`: > 100 µM; `Cc1nc(N)c2ncn(C3CCN(C(=O)c4ccc(S(=O)(=O)F)cc4)CC3)c2n1`: > 100 µM.
Same read-out and setting: with `Nc1ncnc2c1ncn2C1CCN(C(=O)c2ccc(S(=O)(=O)F)cc2)CC1` the figure was > 100 µM; with `Nc1cc(OCCCNC(=O)c2ccc(S(=O)(=O)F)cc2)ccn1`, > 100 µM.
On the same count and under the same terms, with `Nc1cc(OCCNC(=O)c2ccc(S(=O)(=O)F)cc2)ccn1` the figure was > 100 µM; with `Nc1cc(OCCNCc2ccc(S(=O)(=O)F)cc2)ccn1`, > 100 µM.

Tested on in a further data set: not listed separately
As to the kind of experiment: Stability in C57BL/6 mouse plasma assessed as half life at 10 uM by LC-MS method. The data set is classed as ADME, cell-free, C57B/6.
Conditions: not given
The term half-life denotes how long it takes for the measured level to halve. In the case of `Cc1nc(N)c2cnn(C3CCN(C(=O)c4ccc(S(=O)(=O)F)cc4)CC3)c2n1`, the half-life at 10 µM is 1.2 h.

The subject of another data set is RAW264.7. As to the kind of experiment: Cytotoxicity against mouse RAW264.7 cells assessed a reduction in cell viability incubated for 24 hrs in absence of 10% FBS by MTT assay. The class given is cell-based. The conditions noted are these: raw264.7, 24 h.
`Cc1nc(N)cc(OC2CCN(C(=O)c3ccc(S(=O)(=O)F)cc3)CC2)n1`: the Activity result was “Non-Toxic”.
Turning to `Nc1ncnc2c1ncn2CCCNC(=O)c1ccc(S(=O)(=O)F)cc1`, the Activity entry is “Non-Toxic”.
`Cc1nc(N)c2cnn(CCCNC(=O)c3ccc(S(=O)(=O)F)cc3)c2n1`: the Activity result is “Non-Toxic”.
The same measure, in the same setting: next, `Nc1cc(OC2CN(C(=O)c3ccc(S(=O)(=O)F)cc3)C2)ccn1`: “Non-Toxic”; `Cc1nc(N)c2cnn(C3CCN(C(=O)c4ccc(S(=O)(=O)F)cc4)CC3)c2n1`: “Non-Toxic”; `Cc1nc(N)c2ncn(C3CCN(C(=O)c4ccc(S(=O)(=O)F)cc4)CC3)c2n1`: “Non-Toxic”.
On to `Nc1ncnc2c1ncn2C1CCN(C(=O)c2ccc(S(=O)(=O)F)cc2)CC1`, for which the Activity entry is reported as “Non-Toxic”.
As to `Nc1cc(OCCCNC(=O)c2ccc(S(=O)(=O)F)cc2)ccn1`, the Activity result is “Non-Toxic”.
As to `Nc1cc(OCCNC(=O)c2ccc(S(=O)(=O)F)cc2)ccn1`, the Activity entry was “Non-Toxic”.
Still for that read-out and setting: next, `Nc1cc(OCCNCc2ccc(S(=O)(=O)F)cc2)ccn1`: “Non-Toxic”.
